Structures are written as SMILES.

Here are results for 13 molecules from ChEMBL document CHEMBL2057124, “Benzoheterocyclic amodiaquine analogues with potent antiplasmodial activity: synthesis and pharmacological evaluation” (Bioorg Med Chem Lett, 2012).

Data set [1] concerns Plasmodium falciparum. Put plainly: Antiplasmodial activity against chloroquine-resistant Plasmodium falciparum W2 infected in human erythrocytes after 48 hrs by Geimsa staining. The class given is functional, organism-based. To be noted: W2, 48 h.
The test system of data set [2] is Plasmodium falciparum. Put plainly: Antiplasmodial activity against chloroquine-resistant Plasmodium falciparum K1 assessed as [3H]hypoxanthine incorporation after 24 hrs by scintillation counting. The class given is functional, organism-based.
The subject of a further data set is L6. Put plainly: Cytotoxicity against rat L6 cells after 72 hrs by alamar blue assay. The class given is cell-based. Conditions: L6, 72 h.
Data set [3] is described as follows: Selectivity ratio of IC50 for rat L6 cells to IC50 for […]. The class given is ADME, cell-based. To be noted: read-out: Ratio IC50.
Data set [4] deals with Plasmodium falciparum. Put plainly: Resistance ratio of IC50 for chloroquine-resistance Plasmodium falciparum K1 to IC50 for […]. The class given is functional.

As for `CC(C)(C)Nc1nc2cc(Nc3ccnc4cc(Cl)ccc34)ccc2s1`, the half-maximal inhibitory concentration (IC50) in the data set with Plasmodium falciparum [1] is 1160 nM; in the data set with Plasmodium falciparum [2], 917 nM; in the data set with L6 it was 4130 nM. Also, in data set [3], the selectivity ratio stood at 3.56.
For `Clc1ccc2c(Nc3ccc(NCCN4CCCC4)nc3)ccnc2c1`, the half-maximal inhibitory concentration (IC50) stood at 21 nM in the data set with Plasmodium falciparum [1], 92 nM in the data set on Plasmodium falciparum [2] and 18600 nM in the data set with L6. Besides, the selectivity ratio in data set [3] worked out at 885. Also, the “Ratio IC50” value with Plasmodium falciparum [4] is listed as 4.4.
On to `Clc1ccc2c(Nc3ccc4sc(NCCN5CCCC5)nc4c3)ccnc2c1`, for which the 50% inhibitory concentration (IC50) was 12 nM in the data set on Plasmodium falciparum [1], 14 nM in the data set on Plasmodium falciparum [2] and 5120 nM in the data set with L6. Moreover, the selectivity ratio in data set [3] was 426. In addition, the “Ratio IC50” value in the data set with Plasmodium falciparum [4] turned out to be 1.2.
Regarding `CCN(CC)CCNc1nc2cc(Nc3ccnc4cc(Cl)ccc34)ccc2[nH]1`, the IC50 was determined as 200 nM with Plasmodium falciparum [1], 827 nM in the data set on Plasmodium falciparum [2] and 15300 nM in the data set on L6. Besides, the selectivity ratio in data set [3] stood at 76.4.
As to `CCN(CC)CCNc1nc2cc(Nc3ccnc4cc(Cl)ccc34)ccc2s1`, 11 nM corresponded to half-maximal inhibition with Plasmodium falciparum [1] (IC50).
Take `Clc1ccc2c(Nc3ccc4oc(NCCN5CCCC5)nc4c3)ccnc2c1`: the half-inhibitory concentration (IC50) in the data set with Plasmodium falciparum [1] was 8 nM; with Plasmodium falciparum [2] it was 22 nM; with L6 it was 8700 nM. Moreover, the selectivity ratio in data set [3] was found to be 1090. In addition, the “Ratio IC50” value in the data set on Plasmodium falciparum [4] was determined as 2.8.
In the case of `CCNc1nc2cc(Nc3ccnc4cc(Cl)ccc34)ccc2o1`, the half-maximal inhibitory concentration (IC50) in the data set on Plasmodium falciparum [1] is 491 nM; in the data set with Plasmodium falciparum [2] it was 921 nM; in the data set on L6 it was 16400 nM. Moreover, the selectivity ratio in data set [3] came to 33.3.
For the molecule `CCN(CC)Cc1cc(Nc2ccnc3cc(Cl)ccc23)ccc1O`, the IC50 with Plasmodium falciparum [1] worked out at 5 nM; in the data set with Plasmodium falciparum [2], 8 nM.
As for `Clc1ccc2c(Nc3ccc4[nH]c(NCCN5CCCCC5)nc4c3)ccnc2c1`, the figures for the IC50 with Plasmodium falciparum [1], in the data set on Plasmodium falciparum [2] and in the data set on L6 were 4580 nM, 90 nM and 5250 nM, respectively. The selectivity ratio in data set [3] is 1.15.
As for `Clc1ccc2c(Nc3ccc4sc(NCCN5CCCCC5)nc4c3)ccnc2c1`, the IC50 in the data set with Plasmodium falciparum [1] amounted to 13 nM; in the data set with Plasmodium falciparum [2] it was 7 nM; in the data set on L6, 3540 nM. The selectivity ratio in data set [3] is 272.
On to `Clc1ccc2c(Nc3ccc(NCCN4CCOCC4)nc3)ccnc2c1`, for which the values for the IC50 with Plasmodium falciparum [1], in the data set on Plasmodium falciparum [2] and in the data set with L6 were 41 nM, 73 nM and 47400 nM, respectively. Also, the selectivity ratio in data set [3] came out at 1160.
The corresponding values for `CCNc1nc2cc(Nc3ccnc4cc(Cl)ccc34)ccc2[nH]1` are 501 nM, 249 nM, 5710 nM and 11.4.
On to `Clc1ccc2c(Nc3ccc4sc(NCCN5CCOCC5)nc4c3)ccnc2c1`, for which the IC50 with Plasmodium falciparum [1] turned out to be 40 nM; in the data set on Plasmodium falciparum [2] it was 25 nM; in the data set with L6, 4670 nM. The selectivity ratio in data set [3] was 117.
